{"source": "paper PMC10046369", "about": "“Low-Affinity/High-Selectivity Dopamine Transport Inhibition Sufficient to Rescue Cognitive Functions in the Aging Rat” (Biomolecules, 2023)", "test_in_all_cases": "biochemical", "parameters_in_all_cases": "KINOMEscan competition binding panel, per cent of control", "conditions_in_all_cases": "read-out: %Ctrl @ 2800nM", "key": {"[1]": {"target": "PKN1 (Homo sapiens, UniProt Q16512)", "sequence (Q16512 whole entry)": "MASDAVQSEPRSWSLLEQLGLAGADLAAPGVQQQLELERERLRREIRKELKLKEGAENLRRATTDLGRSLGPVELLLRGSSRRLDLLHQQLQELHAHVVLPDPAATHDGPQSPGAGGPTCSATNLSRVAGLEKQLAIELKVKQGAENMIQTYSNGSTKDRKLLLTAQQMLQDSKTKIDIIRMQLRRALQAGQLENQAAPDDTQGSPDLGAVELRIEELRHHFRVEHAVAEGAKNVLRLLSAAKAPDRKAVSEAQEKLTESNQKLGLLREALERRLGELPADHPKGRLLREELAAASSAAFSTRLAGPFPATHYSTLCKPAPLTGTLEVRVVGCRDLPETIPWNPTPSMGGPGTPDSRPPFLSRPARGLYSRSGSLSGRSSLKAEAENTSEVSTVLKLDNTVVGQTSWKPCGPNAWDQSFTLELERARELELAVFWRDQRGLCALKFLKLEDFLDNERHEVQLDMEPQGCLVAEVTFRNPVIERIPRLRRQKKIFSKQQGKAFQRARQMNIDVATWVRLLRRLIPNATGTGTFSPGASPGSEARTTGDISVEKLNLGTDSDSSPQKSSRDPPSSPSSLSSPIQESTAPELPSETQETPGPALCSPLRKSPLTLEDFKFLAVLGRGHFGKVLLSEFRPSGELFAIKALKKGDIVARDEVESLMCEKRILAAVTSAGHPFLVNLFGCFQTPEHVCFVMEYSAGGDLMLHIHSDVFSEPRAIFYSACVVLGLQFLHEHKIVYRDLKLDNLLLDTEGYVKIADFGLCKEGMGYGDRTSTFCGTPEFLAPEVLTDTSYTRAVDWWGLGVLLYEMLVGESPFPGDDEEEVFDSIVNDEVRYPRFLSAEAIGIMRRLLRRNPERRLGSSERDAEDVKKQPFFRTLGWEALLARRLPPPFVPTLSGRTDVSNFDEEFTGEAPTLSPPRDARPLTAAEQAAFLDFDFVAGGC", "procedure,_shortened": "(§1)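 Values are expressed as percent of control, calculated as ((test − positive control)/(negative control − positive control)) × 100, so lower numbers mean stronger hits. Binding was measured by KINOMEscan competition assay in a 450-kinase human panel including disease mutants, using the contractor's validated protocol.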"}, "[2]": {"target": "T1, JAK3(JH1domain-catalytic) (Homo sapiens, UniProt P52333)", "T1 construct": "JH1domain-catalytic", "procedure,_shortened": "as §1"}, "[3]": {"target": "EPHA1 (Homo sapiens, UniProt P21709)", "sequence (P21709 whole entry)": "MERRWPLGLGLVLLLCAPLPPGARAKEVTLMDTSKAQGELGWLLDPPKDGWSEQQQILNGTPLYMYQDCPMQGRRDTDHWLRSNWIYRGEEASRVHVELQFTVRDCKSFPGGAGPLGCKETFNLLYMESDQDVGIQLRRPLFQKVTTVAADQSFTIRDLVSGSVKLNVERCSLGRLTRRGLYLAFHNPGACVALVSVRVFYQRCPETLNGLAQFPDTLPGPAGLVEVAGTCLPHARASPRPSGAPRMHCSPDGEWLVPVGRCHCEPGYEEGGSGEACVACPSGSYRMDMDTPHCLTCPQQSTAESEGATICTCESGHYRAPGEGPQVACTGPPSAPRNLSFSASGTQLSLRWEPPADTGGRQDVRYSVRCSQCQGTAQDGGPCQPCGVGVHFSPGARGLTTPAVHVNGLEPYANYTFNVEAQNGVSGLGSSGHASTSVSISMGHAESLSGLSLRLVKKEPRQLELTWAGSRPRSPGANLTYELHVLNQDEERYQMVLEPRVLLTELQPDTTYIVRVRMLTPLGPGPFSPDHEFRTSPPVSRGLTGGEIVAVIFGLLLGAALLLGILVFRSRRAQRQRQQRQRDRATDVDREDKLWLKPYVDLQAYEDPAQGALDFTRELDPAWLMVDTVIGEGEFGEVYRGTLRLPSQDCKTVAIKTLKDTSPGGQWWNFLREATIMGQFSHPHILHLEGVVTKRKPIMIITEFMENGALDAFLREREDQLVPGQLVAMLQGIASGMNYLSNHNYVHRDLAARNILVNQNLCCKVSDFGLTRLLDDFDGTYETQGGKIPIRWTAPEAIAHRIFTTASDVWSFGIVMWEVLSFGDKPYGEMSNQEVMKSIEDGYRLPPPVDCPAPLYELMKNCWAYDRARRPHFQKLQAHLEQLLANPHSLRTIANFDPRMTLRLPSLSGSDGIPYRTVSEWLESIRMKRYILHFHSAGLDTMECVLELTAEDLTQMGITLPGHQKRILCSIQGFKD", "procedure,_shortened": "as §1"}, "[4]": {"target": "CAMK1 (Homo sapiens, UniProt Q14012)", "procedure,_shortened": "as §1"}, "[5]": {"target": "T2, ABL1(T315I)-phosphorylated (Homo sapiens, UniProt P00519, T315I)", "T2 construct": "phosphorylated", "procedure,_shortened": "as §1"}, "[6]": {"target": "T3, DCAMKL3 (Homo sapiens, UniProt Q9C098)", "T3 construct": "gene DCLK3", "procedure,_shortened": "as §1"}, "[7]": {"target": "GAK (Homo sapiens, UniProt O14976)", "procedure,_shortened": "as §1"}, "[8]": {"target": "IGF1R (Homo sapiens, UniProt P08069)", "procedure,_shortened": "as §1"}, "[9]": {"target": "FLT3(R834Q) (Homo sapiens, UniProt P36888, R834Q)", "procedure,_shortened": "as §1"}, "[10]": {"target": "TAOK2 (Homo sapiens, UniProt Q9UL54)", "procedure,_shortened": "as §1"}, "[11]": {"target": "T4, DCAMKL1 (Homo sapiens, UniProt O15075)", "T4 construct": "gene DCLK1", "procedure,_shortened": "as §1"}, "[12]": {"target": "MAP3K1 (Homo sapiens, UniProt Q13233)", "sequence (Q13233 whole entry)": "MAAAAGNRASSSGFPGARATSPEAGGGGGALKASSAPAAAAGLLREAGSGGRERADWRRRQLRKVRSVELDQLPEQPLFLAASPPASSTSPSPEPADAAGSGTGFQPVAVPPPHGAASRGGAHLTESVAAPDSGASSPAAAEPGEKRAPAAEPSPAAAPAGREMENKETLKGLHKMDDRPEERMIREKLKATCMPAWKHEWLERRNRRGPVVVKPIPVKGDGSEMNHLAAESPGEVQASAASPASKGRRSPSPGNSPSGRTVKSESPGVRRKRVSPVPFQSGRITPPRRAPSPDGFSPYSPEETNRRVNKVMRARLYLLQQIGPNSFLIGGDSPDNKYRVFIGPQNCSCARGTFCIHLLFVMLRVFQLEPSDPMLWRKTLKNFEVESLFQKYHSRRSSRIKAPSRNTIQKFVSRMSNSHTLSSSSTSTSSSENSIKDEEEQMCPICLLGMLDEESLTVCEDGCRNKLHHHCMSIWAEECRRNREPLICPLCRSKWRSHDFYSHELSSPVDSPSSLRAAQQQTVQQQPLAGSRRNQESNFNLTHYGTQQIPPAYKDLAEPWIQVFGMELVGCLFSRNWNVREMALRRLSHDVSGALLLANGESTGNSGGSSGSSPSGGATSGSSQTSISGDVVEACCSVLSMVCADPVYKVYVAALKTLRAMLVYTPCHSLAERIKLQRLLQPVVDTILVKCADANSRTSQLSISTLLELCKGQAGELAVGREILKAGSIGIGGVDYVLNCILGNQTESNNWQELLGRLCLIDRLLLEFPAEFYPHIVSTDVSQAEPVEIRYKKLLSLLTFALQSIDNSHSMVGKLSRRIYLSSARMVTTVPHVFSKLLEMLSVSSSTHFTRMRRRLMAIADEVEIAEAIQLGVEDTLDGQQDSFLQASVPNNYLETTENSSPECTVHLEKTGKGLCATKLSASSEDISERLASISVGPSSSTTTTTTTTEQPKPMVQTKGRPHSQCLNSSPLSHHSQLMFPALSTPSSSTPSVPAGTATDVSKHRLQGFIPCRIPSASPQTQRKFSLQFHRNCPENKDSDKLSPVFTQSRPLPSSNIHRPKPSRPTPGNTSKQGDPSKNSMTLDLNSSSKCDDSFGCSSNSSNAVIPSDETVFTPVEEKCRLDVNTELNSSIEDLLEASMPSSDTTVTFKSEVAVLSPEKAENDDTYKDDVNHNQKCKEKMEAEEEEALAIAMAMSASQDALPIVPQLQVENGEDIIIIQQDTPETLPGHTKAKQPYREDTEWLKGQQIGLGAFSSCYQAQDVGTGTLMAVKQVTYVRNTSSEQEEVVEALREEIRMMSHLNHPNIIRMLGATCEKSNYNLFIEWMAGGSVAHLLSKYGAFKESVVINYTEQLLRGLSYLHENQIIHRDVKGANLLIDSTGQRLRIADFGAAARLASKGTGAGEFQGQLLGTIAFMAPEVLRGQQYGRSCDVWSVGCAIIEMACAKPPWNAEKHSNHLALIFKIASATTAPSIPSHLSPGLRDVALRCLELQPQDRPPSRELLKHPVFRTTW", "procedure,_shortened": "as §1"}, "[13]": {"target": "T5, BIKE (Homo sapiens, UniProt Q9NSY1)", "T5 construct": "gene BMP2K", "procedure,_shortened": "as §1"}, "[14]": {"target": "T6, SNARK (Homo sapiens, UniProt Q9H093)", "T6 construct": "gene NUAK2", "procedure,_shortened": "as §1"}, "[15]": {"target": "T7, LKB1 (Homo sapiens, UniProt Q15831)", "T7 construct": "gene STK11", "procedure,_shortened": "as §1"}, "[16]": {"target": "FLT3(N841I) (Homo sapiens, UniProt P36888, N841I)", "procedure,_shortened": "as §1"}, "[17]": {"target": "CSNK1A1 (Homo sapiens, UniProt P48729)", "procedure,_shortened": "as §1"}, "[18]": {"target": "MAPKAPK2 (Homo sapiens, UniProt P49137)", "procedure,_shortened": "as §1"}, "[19]": {"target": "KIT(V559D,V654A) (Homo sapiens, UniProt P10721, V559D/V654A)", "procedure,_shortened": "as §1"}, "[20]": {"target": "FLT1 (Homo sapiens, UniProt P17948)", "procedure,_shortened": "as §1"}, "[21]": {"target": "T8, CTK (Homo sapiens, UniProt P42679)", "T8 construct": "gene MATK", "procedure,_shortened": "as §1"}, "[22]": {"target": "PIKFYVE (Homo sapiens, UniProt Q9Y2I7)", "procedure,_shortened": "as §1"}, "[23]": {"target": "T9, LOK (Homo sapiens, UniProt O94804)", "T9 construct": "gene STK10", "T9 sequence (O94804 whole entry)": "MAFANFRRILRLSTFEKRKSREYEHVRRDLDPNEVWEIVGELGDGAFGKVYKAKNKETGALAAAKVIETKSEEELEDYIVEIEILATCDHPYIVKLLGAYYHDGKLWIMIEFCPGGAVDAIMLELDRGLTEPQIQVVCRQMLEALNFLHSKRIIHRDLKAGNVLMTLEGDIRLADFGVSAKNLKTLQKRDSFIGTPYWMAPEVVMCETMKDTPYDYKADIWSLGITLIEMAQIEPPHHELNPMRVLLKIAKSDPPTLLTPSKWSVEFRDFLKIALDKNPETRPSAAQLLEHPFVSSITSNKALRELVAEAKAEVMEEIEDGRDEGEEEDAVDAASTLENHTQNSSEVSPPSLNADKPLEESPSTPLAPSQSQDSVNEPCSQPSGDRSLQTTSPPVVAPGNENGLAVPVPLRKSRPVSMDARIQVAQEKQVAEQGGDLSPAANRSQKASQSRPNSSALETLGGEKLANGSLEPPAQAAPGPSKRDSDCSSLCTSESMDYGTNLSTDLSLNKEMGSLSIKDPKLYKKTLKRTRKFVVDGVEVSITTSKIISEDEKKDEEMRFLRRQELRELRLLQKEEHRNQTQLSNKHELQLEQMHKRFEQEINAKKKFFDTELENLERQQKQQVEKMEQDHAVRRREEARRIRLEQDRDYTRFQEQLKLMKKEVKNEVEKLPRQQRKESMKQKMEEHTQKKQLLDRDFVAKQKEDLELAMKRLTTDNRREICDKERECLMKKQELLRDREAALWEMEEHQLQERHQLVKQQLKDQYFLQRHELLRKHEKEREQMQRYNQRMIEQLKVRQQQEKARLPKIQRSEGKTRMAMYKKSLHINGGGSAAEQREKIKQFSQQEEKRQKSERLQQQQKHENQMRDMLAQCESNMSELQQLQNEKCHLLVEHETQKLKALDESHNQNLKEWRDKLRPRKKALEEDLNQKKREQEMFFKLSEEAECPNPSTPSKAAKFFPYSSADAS", "procedure,_shortened": "as §1"}, "[24]": {"target": "IRAK1 (Homo sapiens, UniProt P51617)", "sequence (P51617 whole entry)": "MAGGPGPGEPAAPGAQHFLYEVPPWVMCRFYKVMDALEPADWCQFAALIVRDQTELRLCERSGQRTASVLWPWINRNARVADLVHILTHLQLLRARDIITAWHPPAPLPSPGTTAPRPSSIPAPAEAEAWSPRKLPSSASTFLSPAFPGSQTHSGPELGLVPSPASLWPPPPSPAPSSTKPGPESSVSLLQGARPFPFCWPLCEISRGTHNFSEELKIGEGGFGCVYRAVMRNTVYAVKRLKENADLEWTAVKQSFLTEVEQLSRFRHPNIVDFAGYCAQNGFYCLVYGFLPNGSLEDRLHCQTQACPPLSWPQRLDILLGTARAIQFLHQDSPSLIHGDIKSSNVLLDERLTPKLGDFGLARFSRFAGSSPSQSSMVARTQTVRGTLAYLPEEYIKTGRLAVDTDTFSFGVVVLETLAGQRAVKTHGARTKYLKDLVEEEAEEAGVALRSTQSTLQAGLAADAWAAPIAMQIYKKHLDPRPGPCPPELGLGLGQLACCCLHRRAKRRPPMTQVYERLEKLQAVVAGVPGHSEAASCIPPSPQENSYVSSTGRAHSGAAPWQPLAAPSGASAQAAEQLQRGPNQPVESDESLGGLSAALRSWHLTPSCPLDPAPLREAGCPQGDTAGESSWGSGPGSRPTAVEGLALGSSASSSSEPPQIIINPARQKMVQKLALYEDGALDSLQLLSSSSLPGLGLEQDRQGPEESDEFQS", "procedure,_shortened": "as §1"}, "[25]": {"target": "STK39 (Homo sapiens, UniProt Q9UEW8)", "procedure,_shortened": "as §1"}, "[26]": {"target": "HIPK1 (Homo sapiens, UniProt Q86Z02)", "procedure,_shortened": "as §1"}}}
{"smiles": "[O-][S@@+](Cc1cncs1)C(c1ccccc1)c1ccccc1", "note": "[S-CE-123, (S)-5-((Benzhydrylsulfinyl)Methyl)Thiazole]", "values": [{"measurement": "remaining binding at 2.8 µM", "setting": "[1]", "value": 100, "unit": "%"}, {"measurement": "remaining binding at 2.8 µM", "setting": "[2]", "value": 100, "unit": "%"}, {"measurement": "remaining binding at 2.8 µM", "setting": "[3]", "value": 96, "unit": "%"}, {"measurement": "remaining binding at 2.8 µM", "setting": "[4]", "value": 97, "unit": "%"}, {"measurement": "remaining binding at 2.8 µM", "setting": "[5]", "value": 98, "unit": "%"}, {"measurement": "remaining binding at 2.8 µM", "setting": "[6]", "value": 96, "unit": "%"}, {"measurement": "remaining binding at 2.8 µM", "setting": "[7]", "value": 100, "unit": "%"}, {"measurement": "remaining binding at 2.8 µM", "setting": "[8]", "value": 94, "unit": "%"}, {"measurement": "remaining binding at 2.8 µM", "setting": "[9]", "value": 90, "unit": "%"}, {"measurement": "remaining binding at 2.8 µM", "setting": "[10]", "value": 100, "unit": "%"}, {"measurement": "remaining binding at 2.8 µM", "setting": "[11]", "value": 100, "unit": "%"}, {"measurement": "remaining binding at 2.8 µM", "setting": "[12]", "value": 85, "unit": "%"}, {"measurement": "remaining binding at 2.8 µM", "setting": "[13]", "value": 97, "unit": "%"}, {"measurement": "remaining binding at 2.8 µM", "setting": "[14]", "value": 100, "unit": "%"}, {"measurement": "remaining binding at 2.8 µM", "setting": "[15]", "value": 100, "unit": "%"}, {"measurement": "remaining binding at 2.8 µM", "setting": "[16]", "value": 91, "unit": "%"}, {"measurement": "remaining binding at 2.8 µM", "setting": "[17]", "value": 74, "unit": "%"}, {"measurement": "remaining binding at 2.8 µM", "setting": "[18]", "value": 99, "unit": "%"}, {"measurement": "remaining binding at 2.8 µM", "setting": "[19]", "value": 100, "unit": "%"}, {"measurement": "remaining binding at 2.8 µM", "setting": "[20]", "value": 100, "unit": "%"}, {"measurement": "remaining binding at 2.8 µM", "setting": "[21]", "value": 51, "unit": "%"}, {"measurement": "remaining binding at 2.8 µM", "setting": "[22]", "value": 100, "unit": "%"}, {"measurement": "remaining binding at 2.8 µM", "setting": "[23]", "value": 95, "unit": "%"}, {"measurement": "remaining binding at 2.8 µM", "setting": "[24]", "value": 91, "unit": "%"}, {"measurement": "remaining binding at 2.8 µM", "setting": "[25]", "value": 100, "unit": "%"}, {"measurement": "remaining binding at 2.8 µM", "setting": "[26]", "value": 90, "unit": "%"}]}
